A value given as a limit tells only on which side of the number the result lay.

This assay concerns p-IKKa levels in L363 (NIK translocated multiple myeloma) cells. Kind of assay: Assay 2: Effect of compounds on p-IKKa levels in L363 (NIK translocated multiple myeloma) cells. Format: cell-based. To be noted: Homo sapiens, L-363, 6 h, read-out: Assay 2 IC50 (nM), p-IKKa (Ser 176/180) in BAFF stimulated L363 cells with MG132, 6 h; average if tested more than once. A digest of the protocol: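 Read-out is p-IKKa Ser176/180 by AlphaLISA SureFire in lysates. Cells were BAFF-primed (250 ng/ml) overnight or left unstimulated, then exposed 6 h at 37 °C to compound with MG132 (10 μM), 0.3% DMSO. IC50 from sigmoidal curve fit, normalized between stimulated and unstimulated controls.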
`CN1CC[C@@](O)(c2cc(-c3cccc(-c4ccnc(Nc5ccn(CCN)n5)n4)n3)no2)C1=O` [Example 204, (R)-3-(3-(6-(2-((1-(2-Aminoethyl)-1H-pyrazol-3-yl)amino)pyrimidin-4-yl)pyridin-2-yl)isoxazol-5-yl)-3-hydroxy-1-methylpyrrolidin-2-one]: the IC50 was 50 to 500 nM. The result for `CN1CC[C@@](O)(c2cn(-c3cccc(-c4ccnc(Nc5cn(C)nc5OCC(F)F)n4)n3)nn2)C1=O` [Example 205, (R)-3-(1-(6-(2-((3-(2,2-Difluoroethoxy)-1-methyl-1H-pyrazol-4-yl)amino)pyrimidin-4-yl)pyridin-2-yl)-1H-1,2,3-triazol-4-yl)-3-hydroxy-1-methylpyrrolidin-2-one] reads less than 50 nM; that for `CN1CC[C@@](O)(c2cn(-c3cccc(-c4ccnc(Nc5cnn(C)c5)n4)n3)nn2)C1=O` [Example 206, (R)-3-Hydroxy-1-methyl-3-(1-(6-(2-((1-methyl-1H-pyrazol-4-yl)amino)pyrimidin-4-yl)pyridin-2-yl)-1H-1,2,3-triazol-4-yl)pyrrolidin-2-one], less than 50 nM. The result for `Cc1cc(-c2cccc(-c3cc([C@]4(O)CCN(C)C4=O)on3)n2)nc(Nc2cnn(C)c2)n1` [Example 207, (R)-3-Hydroxy-1-methyl-3-(3-(6-(6-methyl-2-((1-methyl-1H-pyrazol-4-yl)amino)pyrimidin-4-yl)pyridin-2-yl)isoxazol-5-yl)pyrrolidin-2-one] reads more than 500 nM; that for `Cc1cnc(Nc2cnn(C)c2)nc1-c1cccc(-c2cc([C@]3(O)CCN(C)C3=O)on2)n1` [Example 208, (R)-3-Hydroxy-1-methyl-3-(3-(6-(5-methyl-2-((1-methyl-1H-pyrazol-4-yl)amino)pyrimidin-4-yl)pyridin-2-yl)isoxazol-5-yl)pyrrolidin-2-one], more than 500 nM; that for `[2H]c1cc(-c2cccc(-c3cc([C@]4(O)CCN(C)C4=O)on3)n2)nc(Nc2ccn(C)n2)n1` [Example 209, (R)-3-Hydroxy-1-methyl-3-(3-(6-(2-((1-methyl-1H-pyrazol-3-yl)amino)pyrimidin-4-yl-6-d)pyridin-2-yl)isoxazol-5-yl)pyrrolidin-2-one], less than 50 nM.

In the case of `[2H]c1cc(-c2cccc(-c3cc([C@]4(O)CCN(C)C4=O)on3)n2)nc(Nc2ccn(CC)n2)n1` [Example 210, (R)-3-(3-(6-(2-((1-Ethyl-1H-pyrazol-3-yl)amino)pyrimidin-4-yl-6-d)pyridin-2-yl)isoxazol-5-yl)-3-hydroxy-1-methylpyrrolidin-2-one], the IC50 is less than 50 nM. Consider `Cc1nn(C(F)F)cc1Nc1nccc(-c2cccc(-c3cc([C@]4(O)CCN(C)C4=O)on3)n2)n1` [Example 211, (R)-3-(3-(6-(2-((1-(Difluoromethyl)-3-methyl-1H-pyrazol-4-yl)amino)pyrimidin-4-yl)pyridin-2-yl)isoxazol-5-yl)-3-hydroxy-1-methylpyrrolidin-2-one], for which the IC50 was less than 50 nM. With `CN1CC[C@@](O)(c2cc(-c3cccc(-c4ccnc(Nc5ccn(C6CC6)n5)n4)n3)no2)C1=O` [Example 212, (R)-3-(3-(6-(2-((1-Cyclopropyl-1H-pyrazol-3-yl)amino)pyrimidin-4-yl)pyridin-2-yl)isoxazol-5-yl)-3-hydroxy-1-methylpyrrolidin-2-one], the IC50 was less than 50 nM. The result for `Cc1cc(Nc2nccc(-c3cccc(-c4cc([C@]5(O)CCN(C)C5=O)no4)n3)n2)ccn1` [Example 213, (R)-3-Hydroxy-1-methyl-3-(5-(6-(2-((2-methylpyridin-4-yl)amino)pyrimidin-4-yl)pyridin-2-yl)isoxazol-3-yl)pyrrolidin-2-one] reads 50 to 500 nM; that for `CN1CC[C@@](O)(c2cn(-c3cccc(-c4ccnc(Nc5ccn(CC(F)F)n5)n4)n3)nn2)C1=O` [Example 214, (R)-3-(1-(6-(2-((1-(2,2-Difluoroethyl)-1H-pyrazol-3-yl)amino)pyrimidin-4-yl)pyridin-2-yl)-1H-1,2,3-triazol-4-yl)-3-hydroxy-1-methylpyrrolidin-2-one], less than 50 nM. For `CN1CC[C@@](O)(c2cc(-c3cccc(-c4ccnc(Nc5cnn(C6CNC6)c5)n4)n3)no2)C1=O` [Example 215, (R)-3-(3-(6-(2-((1-(Azetidin-3-yl)-1H-pyrazol-4-yl)amino)pyrimidin-4-yl)pyridin-2-yl)isoxazol-5-yl)-3-hydroxy-1-methylpyrrolidin-2-one], the IC50 is more than 500 nM. The result for `CN1CC[C@@](O)(c2cc(-c3cccc(-c4ccnc(Nc5cnn6ncccc56)n4)n3)no2)C1=O` [Example 216, (R)-3-Hydroxy-1-methyl-3-(3-(6-(2-(pyrazolo[1,5-b]pyridazin-3-ylamino)pyrimidin-4-yl)pyridin-2-yl)isoxazol-5-yl)pyrrolidin-2-one] reads less than 50 nM; that for `CCn1ncc(Nc2nccc(-c3cccc(-c4cc([C@]5(O)CCN(C)C5=O)on4)n3)n2)c1C` [Example 217, (R)-3-(3-(6-(2-((1-Ethyl-5-methyl-1H-pyrazol-4-yl)amino)pyrimidin-4-yl)pyridin-2-yl)isoazol-5-yl)-3-hydroxy-1-methylpyrrolidin-2-one], less than 50 nM; that for `CN1CC[C@@](O)(c2cc(-c3cccc(-c4ccnc(Nc5cnc6cccnn56)n4)n3)no2)C1=O` [Example 218, (R)-3-Hydroxy-3-(3-(6-(2-(imidazo[1,2-b]pyridazin-3-ylamino)pyrimidin-4-yl)pyridin-2-yl)isoxazol-5-yl)-1-methylpyrrolidin-2-one], more than 500 nM. Turning to `CN1CC[C@@](O)(c2cc(-c3cccc(-c4ccnc(Nc5cnc6ccccn56)n4)n3)no2)C1=O` [Example 219, (R)-3-Hydroxy-3-(3-(6-(2-(imidazo[1,2-a]pyridin-3-ylamino)pyrimidin-4-yl)pyridin-2-yl)isoxazol-5-yl)-1-methylpyrrolidin-2-one], the IC50 is more than 500 nM. The same measure for `CCn1ncc(Nc2nccc(-c3cccc(-c4cc([C@]5(O)CCN(C)C5=O)on4)n3)n2)c1OC` [Example 220, (R)-3-(3-(6-(2-((1-Ethyl-5-methoxy-1H-pyrazol-4-yl)amino)pyrimidin-4-yl)pyridin-2-yl)isoxazol-5-yl)-3-hydroxy-1-methylpyrrolidin-2-one]: 50 to 500 nM; for `CN1CC[C@@](O)(c2cc(-c3cccc(-c4ccnc(Nc5cnn6c5CCC6)n4)n3)no2)C1=O` [Example 221, (R)-3-(3-(6-(2-((5,6-Dihydro-4H-pyrrolo[1,2-b]pyrazol-3-yl)amino)pyrimidin-4-yl)pyridin-2-yl)isoxazol-5-yl)-3-hydroxy-1-methylpyrrolidin-2-one]: less than 50 nM; for `Cc1c(Nc2nccc(-c3cccc(-c4cc([C@]5(O)CCN(C)C5=O)on4)n3)n2)cnn1C` [Example 222, (R)-3-(3-(6-(2-((1,5-Dimethyl-1H-pyrazol-4-yl)amino)pyrimidin-4-yl)pyridin-2-yl)isoxazol-5-yl)-3-hydroxy-1-methylpyrrolidin-2-one]: less than 50 nM. `Cc1c(Nc2nccc(-c3cccc(-c4cc([C@@]5(O)C(=O)N(C)CC5(F)F)on4)n3)n2)cnn1C` [Example 223, (R)-3-(3-(6-(2-((1,5-Dimethyl-1H-pyrazol-4-yl)amino)pyrimidin-4-yl)pyridin-2-yl)isoxazol-5-yl)-4,4-difluoro-3-hydroxy-1-methylpyrrolidin-2-one]: the IC50 is less than 50 nM. Regarding `Cc1c(Nc2nccc(-c3cccc(-c4cc([C@]5(O)CCN(C)C5=O)on4)n3)n2)cnn1CC(F)F` [Example 225, (R)-3-(3-(6-(2-((1-(2,2-Difluoroethyl)-5-methyl-1H-pyrazol-4-yl)amino)pyrimidin-4-yl)pyridin-2-yl)isoxazol-5-yl)-3-hydroxy-1-methylpyrrolidin-2-one], the IC50 was less than 50 nM.

Consider `CCc1c(Nc2nccc(-c3cccc(-c4cc([C@]5(O)CCN(C)C5=O)on4)n3)n2)cnn1C` [Example 226, (R)-3-(3-(6-(2-((5-Ethyl-1-methyl-1H-pyrazol-4-yl)amino)pyrimidin-4-yl)pyridin-2-yl)isoxazol-5-yl)-3-hydroxy-1-methylpyrrolidin-2-one], for which the IC50 was less than 50 nM. The same measure for `Cc1c(Nc2nccc(-c3cccc(-c4cc([C@]5(O)CCN(C)C5=O)on4)n3)n2)cnn1C(F)F` [Example 227, (R)-3-(3-(6-(2-((1-(Difluoromethyl)-5-methyl-1H-pyrazol-4-yl)amino)pyrimidin-4-yl)pyridin-2-yl)isoxazol-5-yl)-3-hydroxy-1-methylpyrrolidin-2-one]: less than 50 nM. Turning to `CN1CC[C@@](O)(c2cc(-c3cccc(-c4ccnc(Nc5cnn(C)c5C5CC5)n4)n3)no2)C1=O` [Example 228, (R)-3-(3-(6-(2-((5-Cyclopropyl-1-methyl-1H-pyrazol-4-yl)amino)pyrimidin-4-yl)pyridin-2-yl)isoxazol-5-yl)-3-hydroxy-1-methylpyrrolidin-2-one], the IC50 is less than 50 nM. The result for `Cc1nscc1Nc1nccc(-c2cccc(-c3cc([C@]4(O)CCN(C)C4=O)on3)n2)n1` [Example 229, (R)-3-Hydroxy-1-methyl-3-(3-(6-(2-((3-methylisothiazol-4-yl)amino)pyrimidin-4-yl)pyridin-2-yl)isoxazol-5-yl)pyrrolidin-2-one] reads less than 50 nM. The same measure for `COc1cn([C@H]2C[C@@H](O)C2)nc1Nc1nccc(-c2cccc(-c3cc([C@]4(O)CCN(C)C4=O)on3)n2)n1` [Example 230, (R)-3-Hydroxy-3-(3-(6-(2-((1-((1s,3s)-3-hydroxycyclobutyl)-4-methoxy-1H-pyrazol-3-yl)amino)pyrimidin-4-yl)pyridin-2-yl)isoxazol-5-yl)-1-methylpyrrolidin-2-one]: less than 50 nM; for `COc1cn([C@H]2C[C@H](O)C2)nc1Nc1nccc(-c2cccc(-c3cc([C@]4(O)CCN(C)C4=O)on3)n2)n1` [Example 231, (R)-3-Hydroxy-3-(3-(6-(2-((1-((1r,3r)-3-hydroxycyclobutyl)-4-methoxy-1H-pyrazol-3-yl)amino)pyrimidin-4-yl)pyridin-2-yl)isoxazol-5-yl)-1-methylpyrrolidin-2-one]: less than 50 nM.

The record behind these values is patent US20250282768A1 (Janssen Pharmaceutica NV, priority 2022, published 2025).
